Experimental findings from patent EP3046573B1, “AMYLIN ANALOGUES” (Zealand Pharma A/S, priority 2013, dated 2015) are described below.

The target of data set [1] is T1, human calcitonin receptor (hCTR2) (Homo sapiens, UniProt P30988).
T1 construct: expressed in transfected cells
T1 sequence (P30988 25-474): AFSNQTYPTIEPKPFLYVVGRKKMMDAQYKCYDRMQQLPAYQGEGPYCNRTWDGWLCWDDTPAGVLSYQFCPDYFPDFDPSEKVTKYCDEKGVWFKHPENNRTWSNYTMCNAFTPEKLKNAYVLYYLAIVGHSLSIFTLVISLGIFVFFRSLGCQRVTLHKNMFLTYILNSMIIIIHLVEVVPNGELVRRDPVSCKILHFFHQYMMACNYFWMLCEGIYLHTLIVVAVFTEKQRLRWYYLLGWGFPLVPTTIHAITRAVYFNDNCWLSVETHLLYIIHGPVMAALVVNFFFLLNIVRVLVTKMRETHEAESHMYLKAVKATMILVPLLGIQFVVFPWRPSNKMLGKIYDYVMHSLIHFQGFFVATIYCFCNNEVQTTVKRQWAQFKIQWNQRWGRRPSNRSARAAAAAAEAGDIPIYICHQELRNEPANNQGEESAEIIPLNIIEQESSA
The data set is described as follows: hCTR2 assay: induction of cAMP (AlphaScreen cAMP Assay kit) in COS7 cells expressing hCTR2. The data set is classed as cell-based. Conditions: cAMP induction in COS7 cells expressing hCTR2; average of a minimum of 3 determinations; read-out: hCTR2 EC50. An outline of the steps:
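Stable hCTR2 clone in RAMP-naive COS7 cells; peptides titrated in Tyrode buffer (pH 7.4) with 100 µM IBMX, 0.1% casein, 15 min at 37° C. cAMP read by AlphaScreen after lysis; EC50 and efficacy relative to pramlintide from 4PL fit.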

The nature of data set [2]: Solubility assessment (turbidity absorbance at 325 nm). The data set is classed as physicochemical. Conditions: stock 2 mg/ml diluted 1:1, ambient temperature (typically 25°C), n=1; for Solubility, Acetate buffer pH 4: 100 mM acetate buffer pH 4.0; for Solubility, Acetate buffer pH 5: 100 mM acetate buffer pH 5.0; for Solubility, Histidine buffer pH 6: 100 mM histidine buffer pH 6.0; for Solubility, Histidine buffer pH 7: 100 mM histidine buffer pH 7.0; for Solubility, Phosphate buffer pH 6: 100 mM phosphate buffer pH 6.0; for Solubility, Phosphate buffer pH 7: 100 mM phosphate buffer pH 7.0; for Solubility, Phosphate buffer pH 7.5: 100 mM phosphate buffer pH7.5. An outline of the steps:
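Peptide stock (2 mg/ml) in water acidified to pH 2.5 with HCl was diluted 1:1 into 100 mM acetate (pH 4.0, 5.0), histidine (pH 6.0, 7.0) or phosphate (pH 6.0, 7.0, 7.5) buffer. A280 and A325 were read at about 25°C, n=1. A325 ≤ 0.02 meant solubility ≥ 1 mg/ml.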

As usually defined, the EC50 is the midpoint of the concentration-response curve.

Numbered stars: 1 amine (or outer) side, 2 acyl side, 3 side chain; on linkers, the order of the positions; unused ones are H or OH. Bridge positions count the residues as written; N and C are the ends. Square brackets hold non-standard residues; d marks the D form. Peptide text beside a SMILES is read from it. * marks the point of attachment. C20 diacid = O=C(O)CCCCCCCCCCCCCCCCCCC(=O)*; γGlu = O=C(O)[C@H](CCC(=O)[*:2])N[*:1]; NMeI = CC[C@H](C)[C@H](NC)C(=O)O; Sar = CNCC(=O)O

For the molecule `CC[C@H](C)[C@@H](C(=O)N[C@@H](CC(C)C)C(=O)N[C@@H](CO)C(=O)N[C@@H](CO)C(=O)N[C@H](C(=O)N[C@@H](CC(N)=O)C(=O)N[C@H](C(=O)NCC(=O)N[C@@H](CO)C(=O)N[C@@H](CC(N)=O)C(=O)N[C@H](C(=O)N1CCC[C@H]1C(N)=O)[C@@H](C)O)C(C)C)[C@@H](C)O)N(C)C(=O)[C@H](C)NC(=O)CN(C)C(=O)[C@H](Cc1ccccc1)NC(=O)[C@H](CC(N)=O)NC(=O)[C@H](CC(N)=O)NC(=O)[C@H](Cc1c[nH]cn1)NC(=O)[C@H](Cc1c[nH]cn1)NC(=O)[C@H](CC(C)C)NC(=O)[C@H](Cc1ccccc1)NC(=O)[C@H](CCC(=O)O)NC(=O)[C@H](C)NC(=O)[C@H](CC(C)C)NC(=O)[C@H](CCCNC(=N)N)NC(=O)[C@H](CCC(N)=O)NC(=O)[C@@H](NC(=O)[C@H](C)NC(=O)[C@@H]1CSSC[C@H](NC(=O)[C@H](CCCNC(=N)N)NC(=O)CC[C@H](NC(=O)CCCCCCCCCCCCCCCCCCC(=O)O)C(=O)O)C(=O)N[C@@H](CC(N)=O)C(=O)N[C@@H]([C@@H](C)O)C(=O)N[C@@H](C)C(=O)N[C@@H]([C@@H](C)O)C(=O)N1)[C@@H](C)O` [Compound 47, [19CD]-isoGlu-RC()NTATC()ATQRLAEFLHHNNF-Gly(Me)-A-Ile(Me)-LSSTNVGSNTP-NH2] ({C20 diacid-γGlu}-RCNTATCATQRLAEFLHHNNF[Sar]A[NMeI]LSSTNVGSNTP-NH2; disulfide 2-7), in data set [1], the half-maximal effective concentration (EC50) amounted to 60 pM. Also, in data set [2], the “Solubility, Acetate buffer pH 4” value is “SS (SS indicates solubility ≥ 1mg/ml)”; the “Solubility, Acetate buffer pH 5” value is “SS (SS indicates solubility ≥ 1mg/ml)”; the “Solubility, Histidine buffer pH 6” value is reported as “SS (SS indicates solubility ≥ 1mg/ml)”; the “Solubility, Histidine buffer pH 7” value is listed as “SS (SS indicates solubility ≥ 1mg/ml)”. In data set [2], the “Solubility, Phosphate buffer pH 6” value is “SS (SS indicates solubility ≥ 1mg/ml)”; the “Solubility, Phosphate buffer pH 7” value is “SS (SS indicates solubility ≥ 1mg/ml)”; the “Solubility, Phosphate buffer pH 7.5” value was “SS (SS indicates solubility ≥ 1mg/ml)”.
Regarding `CC[C@H](C)[C@@H](C(=O)N[C@@H](CC(C)C)C(=O)N[C@@H](CO)C(=O)N[C@@H](CO)C(=O)N[C@H](C(=O)N[C@@H](CC(N)=O)C(=O)N[C@H](C(=O)NCC(=O)N[C@@H](CO)C(=O)N[C@@H](CC(N)=O)C(=O)N[C@H](C(=O)N1CCC[C@H]1C(N)=O)[C@@H](C)O)C(C)C)[C@@H](C)O)N(C)C(=O)CN(C)C(=O)[C@H](Cc1ccccc1)NC(=O)[C@H](CC(N)=O)NC(=O)[C@H](CC(N)=O)NC(=O)[C@H](Cc1c[nH]cn1)NC(=O)[C@H](Cc1c[nH]cn1)NC(=O)[C@H](CC(C)C)NC(=O)[C@H](Cc1ccccc1)NC(=O)[C@H](CCC(=O)O)NC(=O)[C@H](C)NC(=O)[C@H](CC(C)C)NC(=O)[C@H](CCCNC(=N)N)NC(=O)[C@H](CCC(N)=O)NC(=O)[C@@H](NC(=O)[C@H](C)NC(=O)[C@@H]1CSSC[C@H](NC(=O)[C@H](CCCNC(=N)N)NC(=O)CC[C@H](NC(=O)CCCCCCCCCCCCCCCCCCC(=O)O)C(=O)O)C(=O)N[C@@H](CC(N)=O)C(=O)N[C@@H]([C@@H](C)O)C(=O)N[C@@H](C)C(=O)N[C@@H]([C@@H](C)O)C(=O)N1)[C@@H](C)O` [Compound 48, [19CD]-isoGlu-RC()NTATC()ATQRLAEFLHHNNF-Gly(Me)-Ile(Me)-LSSTNVGSNTP-NH2] ({C20 diacid-γGlu}-RCNTATCATQRLAEFLHHNNF[Sar][NMeI]LSSTNVGSNTP-NH2; disulfide 2-7), in data set [1], the half-maximal effective concentration (EC50) was 120 pM. Moreover, in data set [2], the “Solubility, Acetate buffer pH 4” value is on record as “SS (SS indicates solubility ≥ 1mg/ml)”; the “Solubility, Acetate buffer pH 5” value is reported as “SS (SS indicates solubility ≥ 1mg/ml)”; the “Solubility, Histidine buffer pH 6” value is “SS (SS indicates solubility ≥ 1mg/ml)”; the “Solubility, Histidine buffer pH 7” value was “SS (SS indicates solubility ≥ 1mg/ml)”. For the same molecule, in data set [2], the “Solubility, Phosphate buffer pH 6” value was “SS (SS indicates solubility ≥ 1mg/ml)”; the “Solubility, Phosphate buffer pH 7” value is listed as “SS (SS indicates solubility ≥ 1mg/ml)”; the “Solubility, Phosphate buffer pH 7.5” value is “SS (SS indicates solubility ≥ 1mg/ml)”.
For `CC[C@H](C)[C@@H](C(=O)N[C@@H](CC(C)C)C(=O)N[C@@H](CO)C(=O)N[C@@H](CO)C(=O)N[C@H](C(=O)N[C@@H](CC(N)=O)C(=O)N[C@H](C(=O)NCC(=O)N[C@@H](CO)C(=O)N[C@@H](CC(N)=O)C(=O)N[C@H](C(=O)N1CCC[C@H]1C(N)=O)[C@@H](C)O)C(C)C)[C@@H](C)O)N(C)C(=O)[C@H](C)NC(=O)[C@H](Cc1ccccc1)NC(=O)[C@H](CC(N)=O)NC(=O)[C@H](CC(N)=O)NC(=O)[C@H](CO)NC(=O)[C@H](CO)NC(=O)[C@H](Cc1c[nH]cn1)NC(=O)[C@H](Cc1c[nH]cn1)NC(=O)[C@H](CC(C)C)NC(=O)[C@H](Cc1ccccc1)NC(=O)[C@H](CCC(=O)O)NC(=O)[C@H](C)NC(=O)[C@H](CC(C)C)NC(=O)[C@H](CCCNC(=N)N)NC(=O)[C@H](CCC(N)=O)NC(=O)[C@@H](NC(=O)[C@H](C)NC(=O)[C@@H]1CSSC[C@H](NC(=O)[C@H](CCCNC(=N)N)NC(=O)CC[C@H](NC(=O)CCCCCCCCCCCCCCCCCCC(=O)O)C(=O)O)C(=O)N[C@@H](CC(N)=O)C(=O)N[C@@H]([C@@H](C)O)C(=O)N[C@@H](C)C(=O)N[C@@H]([C@@H](C)O)C(=O)N1)[C@@H](C)O` [Compound 49, [19CD]-isoGlu-RC()NTATC()ATQRLAEFLHHSSNNFA-Ile(Me)-LSSTNVGSNTP-NH2] ({C20 diacid-γGlu}-RCNTATCATQRLAEFLHHSSNNFA[NMeI]LSSTNVGSNTP-NH2; disulfide 2-7), the concentration for a half-maximal effect (EC50) in data set [1] was 140 pM. In addition, in data set [2], the “Solubility, Acetate buffer pH 4” value is “II (II indicates solubility ≤ 1 mg/ml)”; the “Solubility, Acetate buffer pH 5” value is listed as “II (II indicates solubility ≤ 1 mg/ml)”; the “Solubility, Histidine buffer pH 6” value is on record as “II (II indicates solubility ≤ 1 mg/ml)”; the “Solubility, Histidine buffer pH 7” value is reported as “II (II indicates solubility ≤ 1 mg/ml)”. Also, in data set [2], the “Solubility, Phosphate buffer pH 6” value is “II (II indicates solubility ≤ 1 mg/ml)”; the “Solubility, Phosphate buffer pH 7” value is “II (II indicates solubility ≤ 1 mg/ml)”; the “Solubility, Phosphate buffer pH 7.5” value is on record as “II (II indicates solubility ≤ 1 mg/ml)”.
On to `CC[C@H](C)[C@@H](C(=O)N[C@@H](CC(C)C)C(=O)N[C@@H](CO)C(=O)N[C@@H](CO)C(=O)N[C@H](C(=O)N[C@@H](CC(N)=O)C(=O)N[C@H](C(=O)NCC(=O)N[C@@H](CO)C(=O)N[C@@H](CC(N)=O)C(=O)N[C@H](C(=O)N1CCC[C@H]1C(N)=O)[C@@H](C)O)C(C)C)[C@@H](C)O)N(C)C(=O)[C@H](C)NC(=O)CN(C)C(=O)[C@H](CC(N)=O)NC(=O)[C@H](CC(N)=O)NC(=O)[C@H](CO)NC(=O)[C@H](CO)NC(=O)[C@H](Cc1c[nH]cn1)NC(=O)[C@H](Cc1c[nH]cn1)NC(=O)[C@H](CC(C)C)NC(=O)[C@H](Cc1ccccc1)NC(=O)[C@H](CCC(=O)O)NC(=O)[C@H](C)NC(=O)[C@H](CC(C)C)NC(=O)[C@H](CCCNC(=N)N)NC(=O)[C@H](CCC(N)=O)NC(=O)[C@@H](NC(=O)[C@H](C)NC(=O)[C@@H]1CSSC[C@H](NC(=O)[C@H](CCCNC(=N)N)NC(=O)CC[C@H](NC(=O)CCCCCCCCCCCCCCCCCCC(=O)O)C(=O)O)C(=O)N[C@@H](CC(N)=O)C(=O)N[C@@H]([C@@H](C)O)C(=O)N[C@@H](C)C(=O)N[C@@H]([C@@H](C)O)C(=O)N1)[C@@H](C)O` [Compound 50, [19CD]-isoGlu-RC()NTATC()ATQRLAEFLHHSSNN-Gly(Me)-A-Ile(Me)-LSSTNVGSNTP-NH2] ({C20 diacid-γGlu}-RCNTATCATQRLAEFLHHSSNN[Sar]A[NMeI]LSSTNVGSNTP-NH2; disulfide 2-7), for which the EC50 in data set [1] is 140 pM. Further, in data set [2], the “Solubility, Acetate buffer pH 4” value is “SS (SS indicates solubility ≥ 1mg/ml)”; the “Solubility, Acetate buffer pH 5” value is recorded as “SS (SS indicates solubility ≥ 1mg/ml)”; the “Solubility, Histidine buffer pH 6” value was “SS (SS indicates solubility ≥ 1mg/ml)”; the “Solubility, Histidine buffer pH 7” value is reported as “SS (SS indicates solubility ≥ 1mg/ml)”. Moreover, in data set [2], the “Solubility, Phosphate buffer pH 6” value is “SS (SS indicates solubility ≥ 1mg/ml)”; the “Solubility, Phosphate buffer pH 7” value was “SS (SS indicates solubility ≥ 1mg/ml)”; the “Solubility, Phosphate buffer pH 7.5” value is given as “SS (SS indicates solubility ≥ 1mg/ml)”.
